# Source: patent publication US20230407373A1 (priority 2020, published 2023)
# Entries after “also recorded” stand apart in the source; their conditions may differ. Read-outs that look alike come from different tables or passages of the source.
# Experiments:
# Assay type in all cases: binding
# HCoV-OC43 gRNA and sgRNA = conditions: for target (unweighted spectral count): OC43 Probe II, infected cells; for target (spectral count) / background (spectral count): type s_36_m, Probe II; for target (spectral count): HCoV-OC43-infected HCT-8 cells; for background (spectral count): uninfected-probe control
# gRNA of HCoV-OC43 = conditions: for target (spectral count) / background (spectral count): type g_36_m, 36 hpi, Probe I; for target (spectral count): HCoV-OC43-infected HCT-8 cells; for background (spectral count): uninfected-probe control
# [1] = tested on: SARS-CoV-2 gRNA and sgRNAs; conditions: for target (unweighted spectral count of the protein in the RNP capture experiment): LC-MS/MS label-free quantification, probe pool not given; for back-ground (unweighted spectral count of the protein in the control experiment): protein background of the control (e.g. no-probe) experiment; for target (unweighted spectral count in RNP capture): Probe II capture, LC-MS/MS LFQ; for background (unweighted spectral count in control): no-probe control pull-down, used as background for Probe II
# SARS-CoV-2 gRNA = conditions: for target (unweighted spectral count of the protein in the RNP capture): LC-MS/MS, Probe I sample (first 199 lines of Table 2); for target (unweighted spectral count in RNP capture): Probe I capture, LC-MS/MS LFQ; for background (unweighted spectral count in control): no-probe control pull-down, used as background for Probe I
# [2] = 36 hpi, type n_36_v, tested against no-probe control, FDR<10%
# [3] = 12 hpi (type n_12_v), tested against no-probe control
# [4] = 24 hpi (type n_24_v), tested against no-probe control
# [5] = type n_48_v, 48 hpi, OC43 Probe II capture on infected cells
# [6] = type n_48_v, 48 hpi, no-probe control on infected cells
# [7] = type n_48_v: 48 hours post-infection, infected cells, OC43 Probe I, unweighted spectral count
# [8] = type n_48_v: 48 hours post-infection, no-probe control on infected cells
# [9] = 24 hpi, type n_24_v, tested against no-probe control, FDR<10%
Substance,"target (unweighted spectral count, OC43 Probe II capture) (HCoV-OC43 gRNA and sgRNA; [2])",target (unweighted spectral count) (HCoV-OC43 gRNA and sgRNA; [3]),target (unweighted spectral count) (HCoV-OC43 gRNA and sgRNA; [4]),"target (unweighted spectral count, OC43 Probe II) (HCoV-OC43 gRNA and sgRNA; [5])","background (unweighted spectral count, no-probe control) (HCoV-OC43 gRNA and sgRNA; [6])","target (spectral count, OC43 Probe I RNP capture) (gRNA of HCoV-OC43; [7])","background (spectral count, no-probe control) (gRNA of HCoV-OC43; [8])",target (unweighted spectral count of the protein in the RNP capture) (SARS-CoV-2 gRNA),target (unweighted spectral count in RNP capture) [1],background (unweighted spectral count in control) [1],also measured
"PABPC1: host protein, UniProt P11940",23,7,18,26,2,23,2,29,,,target (spectral count) (HCoV-OC43 gRNA and sgRNA; 36 hpi): 29; background (spectral count) (HCoV-OC43 gRNA and sgRNA; 36 hpi): 3; target (spectral count) (gRNA of HCoV-OC43): 22; background (spectral count) (gRNA of HCoV-OC43): 1; enrichment in SARS-CoV-2 Probe II RNP capture [1]: enriched; also recorded: found in the SARS-CoV-2 experiments; enrichment in SARS-CoV-2 Probe I RNP capture (SARS-CoV-2 gRNA): enriched; also recorded: found in the SARS-CoV-2 experiments
SAFB2,5,,,7,1,9,1,8,,,target (unweighted spectral count of the protein in the RNP capture experiment) [1]: 6; back-ground (unweighted spectral count of the protein in the control experiment) [1]: 1
YP_009725304.1,,,,,,,,,,,target (unweighted spectral count in RNP capture) (SARS-CoV-2 gRNA): 5; background (unweighted spectral count in control) (SARS-CoV-2 gRNA): 1
NPM1,,4,,,,,,13,17,1,"target (unweighted spectral count, OC43 Probe II capture) (HCoV-OC43 gRNA and sgRNA; [9]): 7"
XRCC6,11,,7,17,1,12,1,10,9,1,
RPL22L1,,5,,,,,,8,,,
HNRNPU,69,24,40,72,8,80,8,75,,3,
"YBX3: host protein, UniProt P16989",,7,10,,,,,41,73,1,target (spectral count) (gRNA of HCoV-OC43): 13; background (spectral count) (gRNA of HCoV-OC43): 2
KHORBS1,,,,,,,,19,,,
"ILF2: host protein, UniProt Q12905",15,4,7,17,3,14,3,12,,,target (spectral count) (gRNA of HCoV-OC43): 16; background (spectral count) (gRNA of HCoV-OC43): 2; target (unweighted spectral count of the protein in the RNP capture experiment) [1]: 5; back-ground (unweighted spectral count of the protein in the control experiment) [1]: 1
"PTBP1: host protein, UniProt P26599",61,17,33,43,5,,,108,,,target (spectral count) (HCoV-OC43 gRNA and sgRNA; 36 hpi): 61; background (spectral count) (HCoV-OC43 gRNA and sgRNA; 36 hpi): 12
HSPB1,,,,,,,,,,,target (unweighted spectral count in RNP capture) (SARS-CoV-2 gRNA): 5; background (unweighted spectral count in control) (SARS-CoV-2 gRNA): 1
G3BP1,8,5,,,,,,55,54,1,"target (unweighted spectral count, OC43 Probe II capture) (HCoV-OC43 gRNA and sgRNA; [9]): 5"
"HNRNPK: host protein, UniProt P61978",66,,28,63,8,64,8,,52,1,target (spectral count) (HCoV-OC43 gRNA and sgRNA; 36 hpi): 66; background (spectral count) (HCoV-OC43 gRNA and sgRNA; 36 hpi): 12; target (spectral count) (gRNA of HCoV-OC43): 65; background (spectral count) (gRNA of HCoV-OC43): 16
"MRPL28: host protein, UniProt Q13084",,,,7,1,10,1,12,,,target (spectral count) (gRNA of HCoV-OC43): 13; background (spectral count) (gRNA of HCoV-OC43): 1
PCBP1,16,8,8,,,,,12,,2,
FXR2,5,,,7,1,7,1,,23,1,
VIM,,,,,,,,16,,,target (unweighted spectral count of the protein in the RNP capture experiment) [1]: 17; back-ground (unweighted spectral count of the protein in the control experiment) [1]: 4
SRSF1,,,,,,,,,8,1,"background (unweighted spectral count, no-probe control) (HCoV-OC43 gRNA and sgRNA): 1; target (unweighted spectral count, OC43 Probe II capture) (HCoV-OC43 gRNA and sgRNA): 14; target (unweighted spectral count, OC43 Probe II) (HCoV-OC43 gRNA and sgRNA): 20; background (spectral count, no-probe control) (gRNA of HCoV-OC43): 1; target (spectral count, OC43 Probe I RNP capture) (gRNA of HCoV-OC43): 17"
EZR,,,,,,,,,,,target (unweighted spectral count in RNP capture) (SARS-CoV-2 gRNA): 5; background (unweighted spectral count in control) (SARS-CoV-2 gRNA): 1
FAM98A,4,,,5,1,,,7,,,
FXR1,5,,,9,1,,,9,47,1,
GAPDM,,,,,,,,7,,,
